Source: US20060205677A1 (XenoPort, Inc., priority 2005, published 2006)

Tests used:
[1] = system: HT29 (Colon) xenograft; assay: In vivo tumor growth inhibition, mouse xenograft, HT29; design: species or system nude athymic CD-1 mice; conditions: IP
Protocol: (§1) Tumor xenograft studies were performed using nude athymic CD-1 mice (Charles River Laboratories). Human cancer cells (5×10^6 PC3, 5×10^6 HT29, 10^7 Calu-6, and 5×10^6 ME180) were implanted in the hind flank of nude mice. Tumor growth was measured using calipers and tumor volume calculated using the formula: (width^2×(length/2)). Tumor volume was measured 3 days per week. Animal weight was measured 3 days per week to assess compound toxicity.
(§2) Compounds were tested for in vivo tumor growth inhibition as follows. Animals bearing tumors 100-200 mg were sorted into groups (5-8 animals) with similar average tumor mass per group. Drug doses were administered by intraperitoneal (IP) injection (0.5 mL). Test compounds were dissolved in phosphate buffered saline (PBS) and concentration adjusted for animal weight. Actual drug concentrations in formulated doses were verified by quantitative nitrogen detection. Animals were dosed every 7 days for 21 days in most studies. In several studies, animals were dosed twice weekly (days 0, 4, 7, 10, 14, etc.). Tumor volume and animal weight were measured on days 0, 2, 4, 7, 9, 11, 14, 16, 18, 21, 23, 25, and 28. At the end of the study, animal blood was removed for analysis of liver and kidney function (BUN, creatine, AST and ALT; analytical measurements performed by Quality Clinical Labs). Tumor volume at the end of the study was calculated as a percentage of the tumor volume on day 0. The percent tumor growth inhibition was obtained from the ratio of the percentage tumor volume increase in drug treated animals to the percentage tumor volume increase in saline treated animals.

[2] = system: PC3 (Prostate) xenograft; assay: In vivo tumor growth inhibition, mouse xenograft, PC3; design: species or system nude athymic CD-1 mice; conditions: 80 mg/kg (2/week), IP
Protocol: as §1
as §2, with “At the end of the study, animal blood was removed for analysis of liver and kidney function (BUN, creatine, AST and ALT; analytical measurements performed by Quality Clinical Labs).” left out, “The percent tumor growth inhibition was obtained from the ratio of the percentage tumor volume increase in drug treated animals to the percentage tumor volume increase in saline treated animals.” left out

[3] = system: PC3 cells; assay: In vitro cytotoxicity (Alamar blue growth inhibition), PC3; type: cell-based, human; conditions: PC3, 48 h
Protocol: (§3) The effect of experimental compounds on cancer cell growth and viability was measured in a panel of human cancer cells grown in vitro. All cancer cell lines were obtained from the American […]. Cells were maintained in the following media: TUR, H69AR, Calu-6, ME180, and PC3 cells were grown in RPMI medium containing 4.5 g/L glucose, 10% FBS, 4 mM L-glutamine, and 1 mM sodium pyruvate); and HT29 cells were grown in DMEM with 4.5 g/L glucose, 10% FBS, and 6 mM L-glutamine. All cells were grown at 37° C. in 5% CO2 and passaged bi-weekly.
(§4) For cytoxicity studies, cells were seeded into 96-well clear-bottom microtiter plates at the following densities: TUR (7,500 cells/well), HT29 (5,000 cells/well), H69AR (10,000 cells/well), Calu-6 (15,000 cells/well), and ME180 (2,500 cells/well). Cells were maintained at 37° C. with 5% CO2 for 24 hours prior to addition of various experimental compounds. Each condition was measured in triplicate. For compounds dissolved in DMSO, the final DMSO concentration in each well and in the non-drug treated control cells was constant and below 1% in all studies. The number of viable cells was determined after 24, 48, and 72 hours using Alamar blue fluorescence. Briefly, Alamar blue (10 mM) was added to each well for 4 hours, and the number of viable cells estimated by measuring the fluorescence of reduced Alamar blue (530 nm excitation, 590 nm emission). To correct for background fluorescence, cells were treated with 100% DMSO to eliminate all viable cells. The effect of drug on cell growth was determined by calculating the fraction of live cells treated with drug compared to untreated cells: (F1drug treated−F1DMSO killed)/(F1untreated−F1DMSO killed).

[4] = system: ME180 cells; assay: In vitro cytotoxicity (Alamar blue growth inhibition), ME180; type: cell-based, human; conditions: ME180, 48 h
Protocol: as §3, §4

[5] = system: HT29 cells; assay: In vitro cytotoxicity (Alamar blue growth inhibition), HT29; type: cell-based, human; conditions: HT29, 48 h
Protocol: as §3, §4

[6] = Determination of maximum tolerated dose (MTD); type: in vivo, nude mice
Protocol: To determine the maximum tolerated doses for compound (54) relative to clinically used platinum anticancer agents, nude mice were injected with increasing drug doses (0.5 mL, intraperitoneally) on days 0, 7, and 14. […] The therapeutic index of a given drug is defined as the ratio of the maximum tolerated dose to the minimally effective dose.

[7] = system: Calu-6 cells; assay: In vitro cytotoxicity (Alamar blue growth inhibition), Calu-6; type: cell-based, human; conditions: Calu-6, 48 h
Protocol: as §3, §4

[8] = system: TUR cells; assay: In vitro cytotoxicity (Alamar blue growth inhibition), TUR; type: cell-based, human; conditions: 48 h
Protocol: as §3, §4

[9] = system: several different tumor types; assay: In vivo tumor growth inhibition, overall statement; design: species or system nude athymic CD-1 mice; conditions: mouse xenografts, compared with cisplatin, oxaliplatin, carboplatin
Protocol: as §1
as §2, with “At the end of the study, animal blood was removed for analysis of liver and kidney function (BUN, creatine, AST and ALT; analytical measurements performed by Quality Clinical Labs).” left out, “The percent tumor growth inhibition was obtained from the ratio of the percentage tumor volume increase in drug treated animals to the percentage tumor volume increase in saline treated animals.” left out

[10] = system: Calu-6 (Lung) xenograft; assay: In vivo tumor growth inhibition, mouse xenograft, Calu-6; design: species or system nude athymic CD-1 mice; conditions: IP
Protocol: as §1, §2

[11] = system: H69AR cells; assay: In vitro cytotoxicity (Alamar blue growth inhibition), H69AR; type: cell-based, human; conditions: 48 h
Protocol: as §3, §4

[12] = system: HT29 cells; assay: Effect of sugar transport inhibitor (phloridzen) on in vitro cytotoxicity; type: cell-based, human; conditions: for GI50: 48 hours
Protocol: as §3, §4

[13] = system: ME180 (Cervical) xenograft; assay: In vivo tumor growth inhibition, mouse xenograft, ME180; design: species or system nude athymic CD-1 mice; conditions: IP
Protocol: as §1, §2

Question: With O=C(CCCC1C(=O)[O][Pt]2([NH]C3CCCCC3[NH]2)[O]C1=O)NCC1OC(O)C(O)C(O)C1O [(54), [1R,2R-Cyclohexanediamine-N,N′][{3-(α,β-D-Galactopyranos-6-ylamido)propyl}propanedioato(2-)-O,O′]Platinum (II)] as the compound, how does the “Percent Tumor Growth Inhibition HT29 (Colon)” value ([1]; 75 mg/kg (2/week)) read?
Answer: 74%

Question: What about the “Percent Tumor Growth Inhibition HT29 (Colon)” value ([1]; 100 mg/kg) of the same compound?
Answer: 63%

Question: What about the “Percent Tumor Growth Inhibition PC3 (Prostate)” value [2] of the same compound?
Answer: 82%

Question: And the GI50 [3]?
Answer: 85 µM

Question: What about the GI50 [4] of the same compound?
Answer: 15 µM

Question: What about the GI50 [5] of the same compound?
Answer: 238 µM

Question: What about the “Therapeutic index relative to cisplatin, carboplatin, oxaliplatin, in words” value ([6]; in words) of the same compound?
Answer: dramatically improved therapeutic index

Question: What about the “Therapeutic Index MTD/Min Eff” value ([6]; ratio of maximum tolerated dose to minimally effective dose) of the same compound?
Answer: 12.7

Question: And the GI50 [7]?
Answer: 185 µM

Question: What about the GI50 [8] of the same compound?
Answer: 9 µM

Question: And the “Inhibition of tumor growth in vivo, in words” value [9]?
Answer: effective in inhibiting growth of several different tumor types in vivo

Question: And the “Percent Tumor Growth Inhibition Calu-6 (Lung)” value ([10]; 50 mg/kg (2/week))?
Answer: 73%

Question: And the “Percent Tumor Growth Inhibition Calu-6 (Lung)” value ([10]; 100 mg/kg)?
Answer: 42%

Question: And the “Percent Tumor Growth Inhibition Calu-6 (Lung)” value ([10]; 500 mg/kg)?
Answer: 81%

Question: What about the GI50 [11] of the same compound?
Answer: 77 µM

Question: And the GI50 ([12]; HT29, 0 mM phloridzen, read-out: GI50 of Uptake in HT29 Cells, 0 mM Phoridzen)?
Answer: 385 µM

Question: What about the GI50 ([12]; HT29, 0.2 mM phloridzen, read-out: GI50 of Uptake in HT29 Cells, 0.2 mM Phoridzen) of the same compound?
Answer: 574 µM

Question: And the GI50 ([12]; HT29, 0.5 mM phloridzen, read-out: GI50 of Uptake in HT29 Cells, 0.5 mM Phoridzen)?
Answer: 759 µM

Question: What about the GI50 ([12]; HT29, 1.0 mM phloridzen, read-out: GI50 of Uptake in HT29 Cells, 1.0 mM Phoridzen) of the same compound?
Answer: > 1000 µM

Question: And the “Effect of increasing concentrations of phloridzen on cytotoxic effects” value ([12]; HT29, 48 hours, in words)?
Answer: block the cytotoxic effects

Question: And the “Percent Tumor Growth Inhibition ME180 (Cervical)” value ([13]; 50 mg/kg (2/week))?
Answer: 24%

Question: What about the “Percent Tumor Growth Inhibition ME180 (Cervical)” value ([13]; 75 mg/kg (2/week)) of the same compound?
Answer: 24%

Question: What about the “Percent Tumor Growth Inhibition ME180 (Cervical)” value ([13]; 100 mg/kg) of the same compound?
Answer: 18%

Question: And the “Percent Tumor Growth Inhibition ME180 (Cervical)” value ([13]; 500 mg/kg)?
Answer: 68%
